Values of other authors in patent US20060083727A1, “Methods and compositions for the treatment of diseases characterized by calcification and/or plaque formation” (Nanobac Pharmaceuticals, Inc., priority 2004, published 2006).

Test system: NB/CNP
Details: background statement

Molecule | Effect on protective biofilm secreted by NB/CNP | Killing / sensitivity of NB/CNP
O=C(O)CN(CCN(CC(=O)O)CC(=O)O)CC(=O)O [EDTA, Ethylenediaminetetraacetic acid] | can assist in dissolving the protective biofilm | 
Penicillin |  | cannot be killed
